In US20100047166A1, “ANTIBODIES AND RELATED MOLECULES THAT BIND TO 58P1D12 PROTEINS” (priority 2008, published 2010):

Test system: LAPC9-AI prostate tumor xenografts
Experiment: Established LAPC9-AI prostate tumor xenografts in tibiae, monotherapy and combination with Carboplatin
Type: in vivo, SCID mice
Conditions: day 33; MAb 2 mg loading then 1.0 mg i.p. two times a week, 7 doses; Carboplatin 40 mg/kg i.v. days 7, 11, 15, 19, 22, 26; vs control antibody
Procedure: FIG. 16. […] The tumors were allowed to establish for 7 days, at which time the animals were randomized and assigned to four different groups (n=10 in each group) as indicated in the graph. […] Carboplatin (40 mg/kg) was administered to the mice intravenously (i.v.) on days 7, 11, 15, 19, 22 and 26. On day 33 all mice were sacrificed and the tumors were excised and weighed on an electronic balance.
The tumors were allowed to establish for 7 days, at which time the animals were randomized and assigned to four different groups (n=10 in each group). […] Carboplatin (40 mg/kg) was administered to the mice intravenously (i.v.) on days 7, 11, 15, 19, 22 and 26. On day 33 all mice were sacrificed and the tumors were excised and weighed on an electronic balance.

## N.N.O=C([O-])C1(C(=O)[O-])CCC1.[Pt+2] [Carboplatin, reference compound]
  inhibition of tumor growth (tumor weight): 87%
